Test results taken from US7592467B2, “Inhibitors of prolyl endopeptidase” (Probiodrug AG, priority 2005, dated 2009).

What was measured:
[1] = target: T1, Recombinant human prolyl oligopeptidase (Homo sapiens, UniProt P48147); assay: Determination of IC50- and Ki-values of PEP-inhibitors (chromogenic substrate Z-Gly-Pro-pNA); type: biochemical; conditions: substrate Z-Gly-Pro-pNA 0.15 mM, HEPES buffer pH 7.6, 30° C.; n.i. = no inhibition
T1 construct: made in house; host or cells: E. coli
T1 sequence (P48147 1-710): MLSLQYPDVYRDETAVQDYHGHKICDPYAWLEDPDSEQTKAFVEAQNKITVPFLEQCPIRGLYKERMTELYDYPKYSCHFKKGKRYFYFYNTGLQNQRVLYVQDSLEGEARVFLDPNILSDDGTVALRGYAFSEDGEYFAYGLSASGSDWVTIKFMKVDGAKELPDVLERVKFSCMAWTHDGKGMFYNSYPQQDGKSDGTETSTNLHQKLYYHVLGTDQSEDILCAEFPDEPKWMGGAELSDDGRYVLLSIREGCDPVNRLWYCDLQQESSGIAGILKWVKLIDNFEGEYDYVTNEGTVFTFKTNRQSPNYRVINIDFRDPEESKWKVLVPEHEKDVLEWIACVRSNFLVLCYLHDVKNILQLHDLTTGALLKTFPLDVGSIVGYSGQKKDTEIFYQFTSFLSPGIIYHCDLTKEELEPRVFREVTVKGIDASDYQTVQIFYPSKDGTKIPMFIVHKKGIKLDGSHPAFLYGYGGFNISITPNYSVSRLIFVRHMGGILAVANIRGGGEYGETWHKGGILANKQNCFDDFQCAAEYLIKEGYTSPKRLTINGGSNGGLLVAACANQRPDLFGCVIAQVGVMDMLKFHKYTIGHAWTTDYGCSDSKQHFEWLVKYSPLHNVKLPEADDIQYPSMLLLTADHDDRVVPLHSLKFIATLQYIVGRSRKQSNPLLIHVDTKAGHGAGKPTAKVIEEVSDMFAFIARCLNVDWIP
Protocol: Biological Evaluation, Determination of IC50- and Ki-Values of PEP-Inhibitors
Recombinant human prolyl oligopeptidase was used for measurement. Recombinant expression was performed in E. coli under standard conditions as described elsewhere in the state of the art.
For activity measurements the chromogenic substrate Z-Gly-Pro-pNA was used in HEPES buffer pH 7.6 containing 50 mM HEPES, 200 mM NaCl, 1 mM EDTA, 1 mM DTT, 0.006% Brij35. Measurements were carried out at 30° C. Release of pNA were monitored continuously at 405 nm.
IC50 values were calculated using non-linear regression to a 4-parameter equation (Prism 4.0, GraphPad).
For Ki determination 4 substrate (0.15 mM, 0.08 mM 0.04 mM, 0.02 mM) and 7 inhibitor concentrations in an appropriate range were used. Calculations were performed by multiple non-linear regression analysis to the equation for competitive inhibition using GraFit 5.0 Software (Erithacus Software).

U-343 and SH-SY5Y cells = assay: β-Amyloid ELISA, secreted β-amyloid peptides 1-40 and 1-42; type: cell-based; conditions: Homo sapiens, inhibitor 20 μM, 24 hours, conditioned medium, untreated cells = 100%, cell line and peptide (1-40/1-42) not given, read-out: Extracellular Aβ-concentration, % of control
Protocol: The human glioma cell line, U-343 and the human neuroblastoma cell line, SH-SY5Y were maintained in Dulbecco's modified Eagle's medium (DMEM) containing 10% fetal bovine serum (Gibco BRL, Karlsruhe, Germany) and incubated at 37° C. in a 5% CO2 atmosphere. Culture media contained in general 60 μg/ml gentamycin (Gibco BRL, Karlsruhe, Germany).
To quantify intracellular and extracellular concentrations of 0-amyloid peptides, 1-40 and 1-42, U-343 and SH-SY5Y cells were cultured in 6 well plates (1.5×10^6 cells/well) and treated with specific PEP inhibitors (20 μM each) for 24 hours. For quantitation of secreted β-amyloid peptides the conditioned medium was collected and concentrated by lyophylisation. Likewise, after determination of the cell numbers/well (casy cell counter I, Schärfe System, Reutlingen, Germany), cells were lyzed with cell extraction buffer (Biosource, Solingen, Germany) according to the manufacturer's protocol. The protein concentration was determined by the method of Bradford (1976). Aliquots of 100 μl were used to quantify β-amyloid peptides 1-40 and 1-42 in quadruplicate by ELISA (IBL, Hamburg, Germany) following the manufacturer's instructions. All obtained intracellular and extracellular concentrations were normalized to cell numbers and protein concentration, respectively.
For the calculation of the concentration of β-amyloid peptides 1-40 and 1-42 in the cell culture medium after PEP-inhibitor treatment, the basal concentration of β-amyloid peptides 1-40 and 1-42 in the cell culture medium of untreated cell samples was set to 100%. The results of the measurement of the concentration of β-amyloid peptides 1-40 and 1-42 with PEP-inhibitor treated cells are presented as % of the untreated cell samples.

human glial U-343 cells = assay: IL-6 ELISA, basal secretion of IL-6; type: cell-based; conditions: inhibitor 20 μM, 24 hours, serum-free medium, untreated control = 100%, read-out: Extracellular IL-6 concentration, % of untreated cells
Protocol: To analyze basal secretion of IL-6, human glial U-343 cells were cultured in 6 well plates (1.5×10^6 cells/well, Greiner) and treated with specific PEP inhibitors as indicated (20 μM each) for 24 hours in serum-free D-MEM medium (invitrogen). Aliquots of 40 μl conditioned medium were used to quantify the amount of secreted IL-6 by an human-specific IL-6 ELISA (Biosource) following the manufacturer's instructions. All data were obtained in quadruplicate. For the calculation of the IL-6 concentration in the cell culture medium after PEP-inhibitor treatment, the basal IL-6 concentration of the cell culture medium of untreated cell samples was set to 100%. The results of the measurement of the IL-6 concentration with PEP-inhibitor treated cells are presented as % of the untreated cell samples.

Row | IC50 [1] | SMILES | activity at 20 µM (U-343 and SH-SY5Y cells) [%] | activity at 20 µM (human glial U-343 cells) [%]
1 | n.i. | O=C(OCN1C(=O)c2ccccc2C1=O)c1ccccc1C(=O)c1cccs1 [Example 9] | 113 | 124
2 | n.i. | COc1cccc(COC(=O)c2ccccc2C(=O)c2cccs2)c1 [Example 18] | 106 | 63.3
